# Like-named read-outs stand apart in the source and are kept apart here.
# What was measured:
# [1] = tested on: AP-1060 (ETV6-NTRK3); assay: Cell viability assay; conditions: read-out: IC50 in cell proliferation assay
# [2] = tested on: 134 cancer cell lines; assay: Cell viability assay (ATPlite, 72 hours), IC50 on cancer cell line panel
smiles,measurement,setting,value
CCc1cc2c(cc1N1CCC(N3CCOCC3)CC1)C(C)(C)c1[nH]c3cc(C#N)ccc3c1C2=O [alectinib],IC50,[1],1.13 µM
same,IC50,"[2]; HEC-6, read-out: IC50 in cell proliferation assay",> 10 µM
same,IC50,"[2]; Homo sapiens, 769-P, read-out: IC50 in cell proliferation assay",9.15 µM
same,IC50,"[2]; Homo sapiens, 786-0, read-out: IC50 in cell proliferation assay",> 10 µM
same,IC50,"[2]; Homo sapiens, A 172, read-out: IC50 in cell proliferation assay",> 10 µM
same,IC50,"[2]; Homo sapiens, A204, read-out: IC50 in cell proliferation assay",> 10 µM
same,IC50,"[2]; Homo sapiens, A498, read-out: IC50 in cell proliferation assay",> 10 µM
same,IC50,"[2]; Homo sapiens, A549, read-out: IC50 in cell proliferation assay",> 10 µM
same,IC50,"[2]; Homo sapiens, A704, read-out: IC50 in cell proliferation assay",> 10 µM
same,IC50,"[2]; Homo sapiens, A-375, read-out: IC50 in cell proliferation assay",> 10 µM
same,IC50,"[2]; Homo sapiens, A-427, read-out: IC50 in cell proliferation assay",> 10 µM
same,IC50,"[2]; Homo sapiens, ACHN, read-out: IC50 in cell proliferation assay",3.52 µM
same,IC50,"[2]; Homo sapiens, AN3-CA, read-out: IC50 in cell proliferation assay",> 10 µM
same,IC50,"[2]; Homo sapiens, ASPC1, read-out: IC50 in cell proliferation assay",> 10 µM
same,IC50,"[2]; Homo sapiens, AU565, read-out: IC50 in cell proliferation assay",> 10 µM
same,IC50,"[2]; Homo sapiens, BT-20, read-out: IC50 in cell proliferation assay",> 10 µM
same,IC50,"[2]; Homo sapiens, BT-474, read-out: IC50 in cell proliferation assay",> 10 µM
same,IC50,"[2]; Homo sapiens, BT-549, read-out: IC50 in cell proliferation assay",2.71 µM
same,IC50,"[2]; Homo sapiens, BXPC-3, read-out: IC50 in cell proliferation assay",> 10 µM
same,IC50,"[2]; Homo sapiens, C-33-A, read-out: IC50 in cell proliferation assay",1.99 µM
same,IC50,"[2]; Homo sapiens, CAL-27, read-out: IC50 in cell proliferation assay",1.18 µM
same,IC50,"[2]; Homo sapiens, CCF-STTG1, read-out: IC50 in cell proliferation assay",3.02 µM
same,IC50,"[2]; Homo sapiens, CCRF-CEM, read-out: IC50 in cell proliferation assay",> 10 µM
same,IC50,"[2]; Homo sapiens, COLO 205, read-out: IC50 in cell proliferation assay",> 10 µM
same,IC50,"[2]; Homo sapiens, COLO-829, read-out: IC50 in cell proliferation assay",> 10 µM
same,IC50,"[2]; Homo sapiens, DLD-1, read-out: IC50 in cell proliferation assay",> 10 µM
same,IC50,"[2]; Homo sapiens, DU-145, read-out: IC50 in cell proliferation assay",> 10 µM
same,IC50,"[2]; Homo sapiens, DU-4475, read-out: IC50 in cell proliferation assay",> 10 µM
same,IC50,"[2]; Homo sapiens, Daoy, read-out: IC50 in cell proliferation assay",3.45 µM
same,IC50,"[2]; Homo sapiens, DoTc2-4510, read-out: IC50 in cell proliferation assay",0.477 µM
same,IC50,"[2]; Homo sapiens, EOL1, read-out: IC50 in cell proliferation assay",0.193 µM
same,IC50,"[2]; Homo sapiens, FaDu, read-out: IC50 in cell proliferation assay",> 10 µM
same,IC50,"[2]; Homo sapiens, G-361, read-out: IC50 in cell proliferation assay",> 10 µM
same,IC50,"[2]; Homo sapiens, HCC827, read-out: IC50 in cell proliferation assay",1.59 µM
same,IC50,"[2]; Homo sapiens, HCC4006, read-out: IC50 in cell proliferation assay",1.33 µM
same,IC50,"[2]; Homo sapiens, HCT-15, read-out: IC50 in cell proliferation assay",> 10 µM
same,IC50,"[2]; Homo sapiens, HCT-116, read-out: IC50 in cell proliferation assay",> 10 µM
same,IC50,"[2]; Homo sapiens, HEC-1, read-out: IC50 in cell proliferation assay",1.32 µM
same,IC50,"[2]; Homo sapiens, HEC-1B, read-out: IC50 in cell proliferation assay",> 10 µM
same,IC50,"[2]; Homo sapiens, HL-60, read-out: IC50 in cell proliferation assay",> 10 µM
same,IC50,"[2]; Homo sapiens, HT, read-out: IC50 in cell proliferation assay",> 10 µM
same,IC50,"[2]; Homo sapiens, HT-1080, read-out: IC50 in cell proliferation assay",7.55 µM
same,IC50,"[2]; Homo sapiens, Hs746T, read-out: IC50 in cell proliferation assay",> 10 µM
same,IC50,"[2]; Homo sapiens, Hs-578T, read-out: IC50 in cell proliferation assay",4.92 µM
same,IC50,"[2]; Homo sapiens, HuTu80, read-out: IC50 in cell proliferation assay",> 10 µM
same,IC50,"[2]; Homo sapiens, J82, read-out: IC50 in cell proliferation assay",> 10 µM
same,IC50,"[2]; Homo sapiens, Jurkat E6.1, read-out: IC50 in cell proliferation assay",> 10 µM
same,IC50,"[2]; Homo sapiens, K562, read-out: IC50 in cell proliferation assay",> 10 µM
same,IC50,"[2]; Homo sapiens, KATO III, read-out: IC50 in cell proliferation assay",> 10 µM
same,IC50,"[2]; Homo sapiens, KG-1, read-out: IC50 in cell proliferation assay",0.442 µM
same,IC50,"[2]; Homo sapiens, KLE, read-out: IC50 in cell proliferation assay",> 10 µM
same,IC50,"[2]; Homo sapiens, KMS-11, read-out: IC50 in cell proliferation assay",> 10 µM
same,IC50,"[2]; Homo sapiens, KU812, read-out: IC50 in cell proliferation assay",> 10 µM
same,IC50,"[2]; Homo sapiens, Kasumi 1, read-out: IC50 in cell proliferation assay",1.53 µM
same,IC50,"[2]; Homo sapiens, LC-2-ad, read-out: IC50 in cell proliferation assay",1.11 µM
same,IC50,"[2]; Homo sapiens, LNCaP-Clone-FGC, read-out: IC50 in cell proliferation assay",> 10 µM
same,IC50,"[2]; Homo sapiens, LS174T, read-out: IC50 in cell proliferation assay",> 10 µM
same,IC50,"[2]; Homo sapiens, LS-411N, read-out: IC50 in cell proliferation assay",> 10 µM

# Reference: publication PMC9516332 (Frontiers in Oncology, 2022)
